For data set [1] the following is noted: oral, cited from earlier work; for Relative Potency: with reference to cortisol.
For data set [2] the following is noted: 25° C.; cited from earlier work.
Data set [3] in a line: Solubility of dexamethasone in water / aqueous medium. The data set is classed as physicochemical. Particulars: aqueous medium such as the tear fluid. The source says: In certain embodiments of the present invention, dexamethasone is micronized and may have a D50 particle size of less than about 10 μm and/or a D99 particle size of less than about 50 μm. A specific suitable micronized dexamethasone for use in certain embodiments of the present invention is “Dexamethasone USP micronized” from Pfizer with a D90 particle size of equal to or less than about 5 μm (i.e., the volume portion of particles with a particle size of or below about 5 μm is 90%), and a D98 particle size of equal to or below about 10 μm (i.e., the volume portion of particles with a particle size of equal to or below about 10 μm is 98%). The “D” value such as in “D50” means that the indicated percentage by volume (such as 50 volume-% in D50 etc.) of all particles within the respective bulk material (which has a certain particle size distribution) has a particle size of or below the indicated value, e.g. a D50 particle size of below about 10 μm means that 50 volume-% of the particles have a particle size of or below about 10 μm. The particle size distribution can be commonly measured by methods known in the art, and includes sieving as well as laser diffraction methods. […]
It is believed that release of the glucocorticoid into the tear fluid is determined by the glucocorticoid's solubility in an aqueous environment. […]

For the molecule `C[C@]12CCC(=O)C=C1CC[C@@H]1[C@@H]2[C@@H](O)C[C@@]2(C)[C@H]1CC[C@]2(O)C(=O)CO` [Cortisol (Hydrocortisone), Cortisol], in data set [1], the “Equivalent Dose” value is 20 mg and the “Relative Potency” value is 1.

Consider `C[C@]12C=CC(=O)C=C1CC[C@@H]1[C@@H]2[C@@H](O)C[C@@]2(C)[C@H]1CC[C@]2(O)C(=O)CO` [Prednisolone], for which, in data set [1], the “Equivalent Dose” value is on record as 5 mg and the “Relative Potency” value is 4.

Turning to `C[C@@H]1C[C@H]2[C@@H]3CCC4=CC(=O)C=C[C@]4(C)[C@@]3(F)[C@@H](O)C[C@]2(C)[C@@]1(O)C(=O)CO` [Dexamethasone, 9-Fluor-11β,17,21-trihydroxy-16α-methyl-pregna-1,4-dien-3,20-dion], the “Equivalent Dose” value in data set [1] is given as 0.8 mg. Besides, the solubility in water result in data set [2] is reported as “approx. 89 mg/L”. Also, the solubility – broadly, the concentration that dissolves in the medium under given conditions – in data set [3] was below 100 µg/mL.

With `C[C@]12C=CC(=O)C=C1CC[C@H]1[C@@H]3C[C@@H](O)[C@](O)(C(=O)CO)[C@@]3(C)C[C@H](O)[C@@]12F` [Triamcinolone], in data set [1], the “Equivalent Dose” value is recorded as 4 mg and the “Relative Potency” value is listed as 5.

Source of the values: US12144889B2, “Methods of treating allergic conjunctivitis” (OCULAR THERAPEUTIX, INC., priority 2020, dated 2024).
